Laboratory results taken from article PMC4189262 (Pharmacognosy Magazine, 2014).

Experiments:
human CYP1A2 = conditions: ref Shimada et al. [26]; cited from earlier work
[1] = system: rat pheochromocytoma PC12 cells; conditions: limited supply of serum and hydrogen peroxide, ref Hong et al. [14]; cited from earlier work
isolated rat hepatocytes [2] = assay: Lactate dehydrogenase; assay type: cell-based; conditions: 60 μM, hepatocytes incubation, vs control
isolated rat hepatocytes [3] = assay: Glutathione; assay type: cell-based; conditions: 60 μM, hepatocytes incubation, vs control
isolated rat hepatocytes [4] = assay: Malondialdehyde; assay type: cell-based; conditions: 60 μM, hepatocytes incubation, vs control
isolated rat hepatocytes [5] = assay: Trypan blue exclusion; conditions: 60 μM, hepatocytes incubation, vs control

O=c1cc(-c2ccccc2)oc2cc(O)cc(O)c12 [chrysin]
inhibitory activity on human CYP1A2 (human CYP1A2): inhibitory activity

O=c1c(O)c(-c2ccc(O)cc2)oc2cc(O)cc(O)c12 [kaempferol]
inhibitory activity on human CYP1A2 (human CYP1A2): inhibitory activity | protective effects on oxidative damage [1]: protective effects

O=c1c(-c2ccc(O)cc2)coc2cc(O)cc(O)c12 [genistein]
inhibitory activity on human CYP1A2 (human CYP1A2): inhibitory activity

COc1cc(O)c2c(=O)c(O)c(-c3ccc(O)cc3)oc2c1 [rhamnocitrin, kempferol 7-O-methyl ether]
protective effects on oxidative damage [1]: protective effects

Cn1c(CCCC(=O)O)nc2cc(N(CCCl)CCCl)ccc21 [Bendamustine]
increased LDH leakage (isolated rat hepatocytes [2]): 59% | depletion of cell GSH (isolated rat hepatocytes [3]): 76% | increased MDA level (isolated rat hepatocytes [4]): 194% | reduction of cell viability (isolated rat hepatocytes [5]): 33%

O=P1(N(CCCl)CCCl)NCCCO1 (stereo not drawn) [Cyclophosphamide]
increased LDH leakage (isolated rat hepatocytes [2]): 100% | depletion of cell GSH (isolated rat hepatocytes [3]): 72% | increased MDA level (isolated rat hepatocytes [4]): 184% | reduction of cell viability (isolated rat hepatocytes [5]): 43%

O=c1c(O)c(-c2ccccc2)oc2cc(O)cc(O)c12 [galangin]
inhibitory activity on human CYP1A2 (human CYP1A2): inhibitory activity

O=c1cc(-c2ccc(O)cc2)oc2cc(O)cc(O)c12 [apigenin]
inhibitory activity on human CYP1A2 (human CYP1A2): inhibitory activity
